In the oligonucleotide strings, read from the 5' end, every base follows the letter of its sugar. An asterisk marks phosphorothioate; unmarked linkages are phosphodiester. Other units and linkages are bracketed, terminal groups are in braces. A string of capitals states the bases alone. e = 2'-O-(2-methoxyethyl) (MOE); [5mC] = 5-methylcytosine; d = 2'-deoxy (DNA)
Experiments:
Type in all cases: cell-based
human Factor XI mRNA [1] = assay: Antisense inhibition in HepG2 cells by microwalk gapmers, 75 nM, lipofectin (Example 3); conditions: HepG2 cells, 75 nM
Protocol: These gapmers were designed by creating gapmers shifted slightly upstream and downstream (i.e. “microwalk”) of the original gapmers from Table 3. Gapmers were also created with various motifs, e.g. 5-10-5 MOE, 3-14-3 MOE, and 2-13-5 MOE. These gapmers were tested in vitro. Cultured HepG2 cells at a density of 10,000 cells per well were transfected using lipofectin reagent with 75 nM antisense oligonucleotide. After a treatment period of approximately 24 hours, RNA was isolated from the cells and Factor XI mRNA levels were measured by quantitative real-time PCR. Factor XI mRNA levels were adjusted according to total RNA content, as measured by RIBOGREEN®. Results are presented as percent inhibition of Factor XI, relative to untreated control cells.
The chimeric antisense oligonucleotides in Table 4 were designed as 5-10-5 MOE, 3-14-3 MOE, and 2-13-5 MOE gapmers. The first listed gapmers in Table 4 are the original gapmers (see Table 3) from which the remaining gapmers were designed via microwalk and are designated by an asterisk. The 5-10-5 gapmers are 20 nucleotides in length, wherein the central gap segment is comprised of 10 2′-deoxynucleotides and is flanked on both sides (in the 5′ and 3′ directions) by wings comprising 5 nucleotides each. The 3-14-3 gapmers are 20 nucleotides in length, wherein the central gap segment is comprised of 14 2′-deoxynucleotides and is flanked on both sides (in the 5′ and 3′ directions) by wings comprising 3 nucleotides each. The 2-13-5 gapmers are 20 nucleotides in length, wherein the central gap segment is comprised of 13 2′-deoxynucleotides. The central gap is flanked on the 5′ end with a wing comprising 2 nucleotides and on the 3′ end with a wing comprising 5 nucleotides. For each of the motifs (5-10-5, 3-14-3, and 2-13-5), each nucleotide in the 5′ wing segment and each nucleotide in the 3′ wing segment has a 2′-MOE modification. The internucleoside linkages throughout each gapmer are phosphorothioate (P═S) linkages. All cytidine residues throughout each gapmer are 5-methylcytidines. “Target start site” indicates the 5′-most nucleotide to which the gapmer is targeted. “Target stop site” indicates the 3′-most nucleotide to which the gapmer is targeted. Each gapmer listed in Table 4 is targeted to SEQ ID NO: 1 (GENBANK Accession No. NM_000128.3).

human Factor XI mRNA [2] = assay: Dose-dependent inhibition in HepG2 cells, electroporation (Example 4); conditions: 16 hours
Protocol: (§1) The gapmers were also transfected via electroporation and their dose dependent inhibition of human Factor XI mRNA was measured. Cells were plated at a density of 20,000 cells per well and transfected via electroporation with 0.7 μM, 2.2 μM, 6.7 μM, and 20 μM concentrations of antisense oligonucleotide, as specified in Table 10. After a treatment period of approximately 16 hours, RNA was isolated from the cells and Factor XI mRNA levels were measured by quantitative real-time PCR. Human Factor XI primer probe set RTS 2966 was used to measure mRNA levels. Factor XI mRNA levels were adjusted according to total RNA content, as measured by RIBOGREEN®. Results are presented as percent inhibition of Factor XI, relative to untreated control cells.

human Factor XI mRNA [3] = assay: Dose-dependent inhibition in HepG2 cells, lipofectin (Example 4); conditions: 16 hours
Protocol: as §1, with “Cells” for “The gapmers were also transfected via electroporation and their dose dependent inhibition of human Factor XI mRNA was measured. Cells”, “10,000” for “20,000”, “using lipofectin reagent” for “via electroporation”, “9.375 nM, 18.75 nM, 37.5 nM” for “0.7 μM, 2.2 μM, 6.7 μM,”, “75 nM” for “20 μM”, “9.” for “10.”

[4] = oligonucleotides targeted to nucleobases 1062 to 1091 of SEQ ID NO: 1
[5] = oligonucleotides targeted to nucleobases 738 to 762 of SEQ ID NO: 1
[6] = oligonucleotides targeted to nucleobases 1018 to 1042 of SEQ ID NO: 1

Substance | percent inhibition of Factor XI mRNA, relative to untreated control cells (human Factor XI mRNA [2]; 0.7 μM) [%] | percent inhibition of Factor XI mRNA, relative to untreated control cells (human Factor XI mRNA [2]; 2.2 μM) [%] | percent inhibition of Factor XI mRNA, relative to untreated control cells (human Factor XI mRNA [2]; 6.7 μM) [%] | percent inhibition of Factor XI mRNA, relative to untreated control cells (human Factor XI mRNA [2]; 20 μM) [%] | percent inhibition of Factor XI mRNA, relative to untreated control cells (human Factor XI mRNA [3]; 9.375 nM) [%] | percent inhibition of Factor XI mRNA, relative to untreated control cells (human Factor XI mRNA [3]; 18.75 nM) [%] | percent inhibition of Factor XI mRNA, relative to untreated control cells (human Factor XI mRNA [3]; 37.5 nM) [%] | percent inhibition of Factor XI mRNA, relative to untreated control cells (human Factor XI mRNA [3]; 75 nM) [%] | also measured
412215 (antisense eA*eT*eT*e[5mC]*eT*dT*dT*dG*dG*dG*d[5mC]*d[5mC]*dA*dT*dT*e[5mC]*e[5mC]*eT*eG*eG) [compound 412215] | – | – | – | – | – | – | – | – | % inhibition of human Factor XI mRNA levels (human Factor XI mRNA [1]; [4]): 82%
416827 (antisense eT*eA*eT*eG*e[5mC]*d[5mC]*d[5mC]*dT*dT*d[5mC]*dA*dT*dG*dT*d[5mC]*eT*eA*eG*eG*eT) [compound 416827] | 37 | 68 | 87 | 92 | 31 | 42 | 62 | 77 | –
416830 (antisense eT*e[5mC]*e[5mC]*eG*eT*dG*d[5mC]*dA*dT*d[5mC]*dT*dT*dT*d[5mC]*dT*eT*eG*eG*e[5mC]*eA) [compound 416830] | – | – | – | – | – | – | – | – | % inhibition of human Factor XI mRNA levels (human Factor XI mRNA [1]; [5]): 81%
416831 (antisense eA*eT*e[5mC]*e[5mC]*eG*dT*dG*d[5mC]*dA*dT*d[5mC]*dT*dT*dT*d[5mC]*eT*eT*eG*eG*e[5mC]) [compound 416831] | – | – | – | – | – | – | – | – | % inhibition of human Factor XI mRNA levels (human Factor XI mRNA [1]; [5]): 91%
416832 (antisense e[5mC]*eA*eT*e[5mC]*e[5mC]*dG*dT*dG*d[5mC]*dA*dT*d[5mC]*dT*dT*dT*e[5mC]*eT*eT*eG*eG) [compound 416832] | – | – | – | – | – | – | – | – | % inhibition of human Factor XI mRNA levels (human Factor XI mRNA [1]; [5]): 79%
416833 (antisense eT*e[5mC]*eA*eT*e[5mC]*d[5mC]*dG*dT*dG*d[5mC]*dA*dT*d[5mC]*dT*dT*eT*e[5mC]*eT*eT*eG) [compound 416833] | – | – | – | – | – | – | – | – | % inhibition of human Factor XI mRNA levels (human Factor XI mRNA [1]; [5]): 65%
416834 (antisense eG*eT*e[5mC]*eA*eT*d[5mC]*d[5mC]*dG*dT*dG*d[5mC]*dA*dT*d[5mC]*dT*eT*eT*e[5mC]*eT*eT) [compound 416834] | – | – | – | – | – | – | – | – | % inhibition of human Factor XI mRNA levels (human Factor XI mRNA [1]; [5]): 58%
416835 (antisense eA*e[5mC]*e[5mC]*eG*eG*dG*dA*dT*dG*dA*dT*dG*dA*dG*dT*eG*e[5mC]*eA*eG*eA) [compound 416835] | – | – | – | – | – | – | – | – | % inhibition of human Factor XI mRNA levels (human Factor XI mRNA [1]; [6]): 83%
416836 (antisense eA*eA*e[5mC]*e[5mC]*eG*dG*dG*dA*dT*dG*dA*dT*dG*dA*dG*eT*eG*e[5mC]*eA*eG) [compound 416836] | – | – | – | – | – | – | – | – | % inhibition of human Factor XI mRNA levels (human Factor XI mRNA [1]; [6]): 89%
416837 (antisense e[5mC]*eA*eA*e[5mC]*e[5mC]*dG*dG*dG*dA*dT*dG*dA*dT*dG*dA*eG*eT*eG*e[5mC]*eA) [compound 416837] | – | – | – | – | – | – | – | – | % inhibition of human Factor XI mRNA levels (human Factor XI mRNA [1]; [6]): 90%
416839 (antisense eG*eA*eT*eT*e[5mC]*dT*dT*dT*dG*dG*dG*d[5mC]*d[5mC]*dA*dT*eT*e[5mC]*e[5mC]*eT*eG) [compound 416839] | – | – | – | – | – | – | – | – | % inhibition of human Factor XI mRNA levels (human Factor XI mRNA [1]; [4]): 89%
416840 (antisense eA*eG*eA*eT*eT*d[5mC]*dT*dT*dT*dG*dG*dG*d[5mC]*d[5mC]*dA*eT*eT*e[5mC]*e[5mC]*eT) [compound 416840] | – | – | – | – | – | – | – | – | % inhibition of human Factor XI mRNA levels (human Factor XI mRNA [1]; [4]): 85%
416841 (antisense eG*eA*eG*eA*eT*dT*d[5mC]*dT*dT*dT*dG*dG*dG*d[5mC]*d[5mC]*eA*eT*eT*e[5mC]*e[5mC]) [compound 416841] | – | – | – | – | – | – | – | – | % inhibition of human Factor XI mRNA levels (human Factor XI mRNA [1]; [4]): 87%
416843 (antisense eT*eT*eT*eG*eA*dG*dA*dT*dT*d[5mC]*dT*dT*dT*dG*dG*eG*e[5mC]*e[5mC]*eA*eT) [compound 416843] | – | – | – | – | – | – | – | – | % inhibition of human Factor XI mRNA levels (human Factor XI mRNA [1]; [4]): 89%
416895 (antisense eT*eA*eT*dG*d[5mC]*d[5mC]*d[5mC]*dT*dT*d[5mC]*dA*dT*dG*dT*d[5mC]*dT*dA*eG*eG*eT) [compound 416895] | 0 | 62 | 70 | 91 | 39 | 57 | 66 | 71 | –
416896 (antisense eT*eT*eA*dT*dG*d[5mC]*d[5mC]*d[5mC]*dT*dT*d[5mC]*dA*dT*dG*dT*d[5mC]*dT*eA*eG*eG) [compound 416896] | 12 | 35 | 81 | 89 | 22 | 39 | 57 | 81 | –
416945 (antisense eA*eA*dT*dG*dT*d[5mC]*dT*dT*dT*dG*dT*dT*dG*d[5mC]*dA*eA*eG*e[5mC]*eG*e[5mC]) [compound 416945] | 48 | 70 | 81 | 88 | 34 | 45 | 62 | 65 | –
416969 (antisense eG*e[5mC]*d[5mC]*d[5mC]*dT*dT*d[5mC]*dA*dT*dG*dT*d[5mC]*dT*dA*dG*eG*eT*e[5mC]*e[5mC]*eA) [compound 416969] | 25 | 34 | 86 | 92 | 17 | 39 | 61 | 76 | –
416972 (antisense eT*eA*dT*dG*d[5mC]*d[5mC]*d[5mC]*dT*dT*d[5mC]*dA*dT*dG*dT*d[5mC]*eT*eA*eG*eG*eT) [compound 416972] | 25 | 30 | 48 | 88 | 32 | 40 | 60 | 69 | –
416973 (antisense eT*eT*dA*dT*dG*d[5mC]*d[5mC]*d[5mC]*dT*dT*d[5mC]*dA*dT*dG*dT*e[5mC]*eT*eA*eG*eG) [compound 416973] | 20 | 48 | 86 | 93 | 60 | 75 | 85 | 87 | –
